Assay results: US8785637B2, “Carboxamide-substituted dyes for analytical applications” (ATTO-TEC GmbH, priority 2002, dated 2014)

Experiment: Solubility in water
Assay type: physicochemical
Settings: sugar residue as R5 or/and R6

- solubility in water: high solubility in water
Structure (SMILES): CCN(CC)c1ccc2c(-c3ccccc3C(=O)N(C)CC(O)C(O)C(O)C(O)CO)c3ccc(=[N+](CC)CC)cc-3oc2c1 (stereo not shown) [Compound 51]
